Laboratory results as given in patent US20200129514A1, “JAK INHIBITION AS A NOVEL THERAPY FOR PREVENTING TUMORS IN PEUTZ-JEGHERS SYNDROME” (Curingenetics, LLC, priority 2018, published 2020).

How the values were obtained:
[1] = tested on: Lkb1FspKO/FspKO mice (PJS polyps); assay: Ruxolitinib-containing chow treatment of Lkb1FspKO/FspKO mice, tumor burden after six weeks
Stat3 = Stat3 activation in primary epithelial crypts incubated with recombinant cytokine; format: cell-based; conditions: primary epithelial crypts isolated from mouse small intestine
Procedure: (§1) IL-11 signaling is mediated via its binding to the transmembrane receptor Gp130, resulting in activation of the Jak-Stat and MAPK pathways. Of these, the induction of Jak-Stat3 activation appears most critical in GI tumorigenesis. To investigate whether IL-11 is sufficient to induce Stat3 activation in isolated wild-type epithelium, we incubated primary epithelial crypts isolated from mouse small intestine with recombinant IL-11. […] Next, we addressed whether Stat3-dependent transcriptional changes observed in polyps can be induced by IL-11 in primary epithelial organoid cultures. We focused our analysis in Reg3b, Reg3g and Lrg1 genes due to their reported expression in inflammatory epithelium in a Stat3-dependent manner and overexpression in PJS model polyps (Supplemental FIG. 6D, Supplemental Table 3).

[2] = tested on: Reg3b, Reg3g and Lrg1 expression; assay: Induction of Stat3-dependent genes in primary epithelial organoid cultures; format: cell-based
Procedure: as §1

With `N#CC[C@H](C1CCCC1)n1cc(-c2ncnc3[nH]ccc23)cn1` [ruxolitinib, Ruxolitinib] the tumor-free mice ([1]; ruxolitinib chow 2 g/kg, 6/11 treated mice, all non-treated mice developed polyps) was 55%, the average polyp diameter ([1]; ruxolitinib chow, 2.51 in non-treated, p=0.082, not significant) was 1.68 mm and the average tumor number ([1]; ruxolitinib chow, 6.54 in non-treated) was 1.27. The average tumor area ([1]; ruxolitinib chow, 47.4 in non-treated) was 3.58 mm2.

For “IL-6: IL-6 cytokine used as comparator for Stat3 activation”, the “activation of Stat3” value (Stat3) was “comparably”.

B1: IL-11: recombinant IL-11, an IL-6 family cytokine signalling via Gp130 (protein, UniProt P20809 22-199, looked up)
Interleukin-11: PGPPPGPPRVSPDPRAELDSTVLLTRSLLADTRQLAAQLRDKFPADGDHNLDSLPTLAMSAGALGALQLPGVLTRLRADLLSYLRHVQWLRRAGGSSLKTLEPELGTLQARLDRLLRRLQLLMSRLALPQPPPDPPAPPLAPPSSAWGGIRAAHAILGGLHLTLDWAVRGLLLLKTRL
In the case of B1, the “activation of Stat3” value (Stat3) is reported as “resulted in activation of Stat3” and the “induction of Reg3b, Reg3g and Lrg1 expression” value [2] is reported as “robust induction”.
